Experimental data as given in article PMC6108835, “Target-Based Discovery of an Inhibitor of the Regulatory Phosphatase PPP1R15B” (Cell, 2018).

Assays:
PP1c [1] = target: T1, PP1c (Homo sapiens, UniProt P36873); assay: SPR, compounds binding to PP1c alone immobilized on streptavidin chip; set-up: cDNA encoding for human PP1cγ (aa 1-322) was cloned into two baculovirus transfer vectors; made in house; host or cells: Sf9 insect cells (baculovirus); details: PP1c immobilized on SA chip
Procedure: Small molecules were stored as 50 mM stock solutions in 100% DMSO. […] If necessary the concentration range was adjusted to accurately determine the KD depending on the initial results. […] This was followed by 1 min stabilization period, to wash off any unspecific binding. […] After each dilution series, the surface was regenerated using 3 M NaCl for 90 s. […] In order to be able to correct for small variations in DMSO concentration between samples, eight solvent samples ranging from 0.06 to 8% DMSO were injected every 50th cycle. The flow cell temperature was 20°C.

R15B = target: T2, R15B (Homo sapiens, UniProt Q5SWA1); assay: R15B levels on immunoblots of HeLa cell lysates; format: cell-based; details: HeLa cells, Raphin1 10 μM
T2 construct: endogenous in cells; host or cells: HeLa
T2 sequence (Q5SWA1 1-713): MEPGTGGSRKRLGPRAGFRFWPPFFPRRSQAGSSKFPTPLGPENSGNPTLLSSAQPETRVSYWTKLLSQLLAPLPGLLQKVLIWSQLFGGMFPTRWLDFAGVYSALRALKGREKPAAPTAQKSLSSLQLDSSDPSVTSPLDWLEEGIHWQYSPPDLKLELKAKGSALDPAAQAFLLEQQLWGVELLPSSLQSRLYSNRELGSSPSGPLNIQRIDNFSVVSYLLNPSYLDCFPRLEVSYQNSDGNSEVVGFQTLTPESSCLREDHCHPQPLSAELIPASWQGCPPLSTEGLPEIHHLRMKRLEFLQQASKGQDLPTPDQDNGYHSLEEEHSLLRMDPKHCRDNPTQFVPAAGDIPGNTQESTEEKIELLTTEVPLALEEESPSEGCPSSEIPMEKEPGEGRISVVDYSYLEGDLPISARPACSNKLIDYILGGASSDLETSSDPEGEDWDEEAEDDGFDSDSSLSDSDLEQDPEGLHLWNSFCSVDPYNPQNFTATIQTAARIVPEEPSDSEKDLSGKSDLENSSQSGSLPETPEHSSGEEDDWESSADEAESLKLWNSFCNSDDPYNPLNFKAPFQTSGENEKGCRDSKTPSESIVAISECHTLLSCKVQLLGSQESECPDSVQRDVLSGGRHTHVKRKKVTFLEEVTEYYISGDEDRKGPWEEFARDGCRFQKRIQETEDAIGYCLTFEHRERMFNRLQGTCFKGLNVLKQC
Procedure: HeLa or MEF cells (90,000 cells/mL) were plated in 12-well plates (1 mL/well). The following day cells were treated as indicated; the medium was removed, fresh medium containing compound added and incubated at 37°C for the times indicated. The time course was performed in reverse order to facilitate collecting all samples at the same time. At the end of treatment cells were washed two times with ice-cold PBS and lysed in 150 μL Laemmli Buffer. […] Proteins were transferred to the nitrocellulose membrane using the iBlot 2 system (ThermoFisher Scientific). Membrane was blocked in 5% skimmed milk for 30 min and then probed with primary antibodies followed by incubation with the appropriate horseradish peroxidase-conjugated secondary antibodies (Promega). Proteins were visualized using ECL Prime (GE Healthcare) and imaged in the Chemi-Smart 5000 (Vilber-Lourmat, France) or ChemiDoc Touch (BioRad). Bands were quantified using ImageJ (NIH, USA).

R15A^325–636 = target: T3, R15A^325–636 (Homo sapiens, UniProt O75807); assay: eIF2α pull down with MBP-tagged R15A; format: biochemical; details: Raphin1 200 μM, P-eIF2α 1 μM
T3 construct: made in house; host or cells: E. coli BL21-Gold (DE3) pLysS
Procedure: Recombinant eIF2α was produced as described in [Ito et al. (2004)] and pull down experiments were carried out as previously described ([Carrara et al., 2017]). Amylose beads (New England BioLabs) were pre-equilibrated with interaction buffer (50 mM Tris pH 7.4, 200 mM NaCl, 0.05% Tween20). 20 μL amylose beads were incubated with purified MBP-tagged R15s (200 nM), P-eIF2α (1 μM) as appropriate, plus 200 μM Raphin1, or DMSO vehicle in a total volume of 200 μL. Input samples (5%) was removed at this step, and added to 4% SDS-Laemmli sample buffer. Beads were incubated for 10 min at 4°C with 20 rpm gentle rotation. The beads were washed 5 × 1 mL with interaction buffer, transferred to a fresh tube and finally resuspended with 50 μL 4% SDS-Laemmli sample buffer. Eluded beads were boiled and then run on 4%–12% NuPAGE Bis-Tris gels (ThermoFisher Scientific). Anti-MBP HRP (New England BioLabs (#E8038); 1:5,000) (to probe for R15s) and anti-eIF2α (AbCam (#ab26197); 1:1,000) antibodies were used for immunoblotting analyses of samples.

PP1c [2] = target: T1, PP1c; assay: PP1c catalytic activity assay (DiFMUP, EnzChek); details: his-PP1c 30 nM
Procedure: Residual activity of PP1c was measured using the EnzChek Phosphatase Assay Kit (ThermoFisher Scientific) according to the supplier’s instructions, with minor modifications.

[3] = Glucose tolerance test in wild-type mice; format: in vivo, mouse; details: 2 mg/kg daily for 8 weeks
Procedure: Treatment- and test-naive 4 weeks old C3H/B6 males were used. Raphin1 was administered to mice daily for 8 weeks before the test. After the overnight 14 hr starvation mice were injected intraperitoneally with D-glucose (Sigma-Aldrich) at 2 g glucose/kg body weight. Right before and at the indicated time points after the injection blood samples were collected from the tail vein and the blood glucose concentration was determined using The Accu-Chek Aviva Blood Glucose Meter (Roche).

T1 sequence (P36873 1-322): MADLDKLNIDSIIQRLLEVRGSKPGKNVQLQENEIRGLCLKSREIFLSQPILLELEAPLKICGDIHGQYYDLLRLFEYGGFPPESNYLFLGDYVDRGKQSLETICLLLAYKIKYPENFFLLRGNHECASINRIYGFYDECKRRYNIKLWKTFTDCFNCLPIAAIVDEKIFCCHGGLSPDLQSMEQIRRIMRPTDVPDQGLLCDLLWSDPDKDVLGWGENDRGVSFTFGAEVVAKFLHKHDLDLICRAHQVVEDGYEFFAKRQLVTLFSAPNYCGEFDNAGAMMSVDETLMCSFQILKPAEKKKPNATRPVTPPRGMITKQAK
T3 sequence (O75807 325-636, stated change not applied): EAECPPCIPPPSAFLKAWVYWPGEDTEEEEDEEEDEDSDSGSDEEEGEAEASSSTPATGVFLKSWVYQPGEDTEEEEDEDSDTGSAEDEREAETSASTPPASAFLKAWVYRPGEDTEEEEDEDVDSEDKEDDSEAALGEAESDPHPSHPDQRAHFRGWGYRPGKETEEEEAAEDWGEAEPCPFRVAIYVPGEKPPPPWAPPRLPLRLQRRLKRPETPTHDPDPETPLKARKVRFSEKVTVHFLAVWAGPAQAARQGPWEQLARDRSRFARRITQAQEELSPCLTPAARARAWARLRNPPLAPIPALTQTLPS

Structure (SMILES): [H]/N=C(\N)NN=Cc1cccc(Cl)c1Cl [Raphin1, (E)-2-(2,3-dichlorobenzylidene)hydrazine-1-carboximidamide]
- Binding to PP1c alone (in words) (PP1c [1]): did not bind
- R15B levels (R15B): significantly decreased
- Recruitment of eIF2α to R15A (R15A^325–636): no such effect
- Inhibition of PP1c (dephosphorylation of difluoro-4-methylumbelliferyl phosphate) (PP1c [2]): did not inhibit
- Adverse effects on glucose tolerance [3]: no obvious adverse effects
